Tested on: C. albicans (GDH2346) hyphae
Assay: Activity against hyphae, Live-Dead stain fluorescence microscopy
Format: cell-based
Conditions: 8 μg/mL, 15 to 60 minutes
Description: C. albicans (GDH2346) was grown in 10% FCS for 3 days to achieve hyphae. Hyphae were treated with Compound 100 (8 μg/mL) for 0 minutes (see, FIG. 2A), 15 minutes (see, FIG. 2B), 30 minutes (see, FIG. 2C), or 60 minutes (see, FIG. 2D). Cultures were stained with FungaLight Live-Dead stain (InVitrogen) and observed under fluorescence microscopy (100× magnification).

For NCCSc1cc(SCCN)c(C(F)(F)F)cc1NC(=O)c1cc(C(=O)Nc2cc(C(F)(F)F)c(SCCN)cc2SCCN)ncn1 [Compound 100], the “death of hyphal cultures” value was “rapidly caused death of hyphal cultures at low concentrations”.

Reference: US8895561B2, “Compounds and methods for treating candidiasis and aspergillus infections” (Cellceutix Corporation, priority 2012, dated 2014)
